Test results published in patent publication US20250353841A1 (BIOGEN MA INC., priority 2022, published 2025).

System: mutant Huntington (HTT) protein
Experiment: HTT Mutant HTRF iPSC assay (mHTT protein lowering)
Assay type: cell-based
Conditions: human iPSC derived from a HTT patient with a poly-Q49 mutation

Compound: Fc1cc(-c2ccc3nonc3c2)cn2cc(C3CCNCC3)nc12 [Compound 51, 5-(8-fluoro-2-(piperidin-4-yl)imidazo[1,2-a]pyridin-6-yl)benzo[c][1,2,5]oxadiazole]
- IC50: 1 to 9 µM

Compound: Fc1cc(-c2cc(F)c3nc(C4CCNCC4)cn3c2)cc2[nH]ncc12 [Compound 52, 4-fluoro-6-(8-fluoro-2-(piperidin-4-yl)imidazo[1,2-a]pyridin-6-yl)-1H-indazole]
- IC50: 1 to 9 µM

Compound: Cc1n[nH]c2ccc(-c3cc(F)c4nc(C5CCNCC5)cn4c3)cc12 [Compound 53, 5-(8-fluoro-2-(piperidin-4-yl)imidazo[1,2-a]pyridin-6-yl)-3-methyl-1H-indazole]
- IC50: 1 to 9 µM

Compound: Fc1cc(-c2ccc3nsnc3c2)cn2cc(C3CCNCC3)nc12 [Compound 54, 5-(8-fluoro-2-(piperidin-4-yl)imidazo[1,2-a]pyridin-6-yl)benzo[c][1,2,5]thiadi azole]
- IC50: 1 to 9 µM

Compound: CN1C(=O)Cc2ccc(-c3cc(F)c4nc(C5CCNCC5)cn4c3)cc21 [Compound 55, 6-(8-fluoro-2-(piperidin-4-yl)imidazo[1,2-a]pyridin-6-yl)-1-methylindolin-2-one]
- IC50: 1 to 9 µM

Compound: N#Cc1cccc2[nH]c(-c3cc(F)c4nc(C5CCNCC5)cn4c3)cc12 [Compound 56, 2-(8-fluoro-2-(piperidin-4-yl)imidazo[1,2-a]pyridin-6-yl)-1H-indole-4-carbonitrile]
- IC50: 1 to 9 µM

Compound: O=C1Cc2cc(-c3cc(F)c4nc(C5CCNCC5)cn4c3)cc(F)c2N1 [Compound 57, 7-fluoro-5-(8-fluoro-2-(piperidin-4-yl)imidazo[1,2-a]pyridin-6-yl)indolin-2-one]
- IC50: 1 to 9 µM

Compound: O=c1[nH]ncc2ccc(-c3cc(F)c4nc(C5CCNCC5)cn4c3)cc12 [Compound 58, 7-(8-fluoro-2-(piperidin-4-yl)imidazo[1,2-a]pyridin-6-yl)phthalazin-1(2H)-one]
- IC50: 1 to 9 µM

Compound: Fc1cc(-c2ccc3[nH]ncc3c2)cn2cc(C3CCNCC3)nc12 [Compound 59, 5-(8-fluoro-2-(piperidin-4-yl)imidazo[1,2-a]pyridin-6-yl)-1H-indazole]
- IC50: 1 to 9 µM

Compound: Cc1cn2nc(-c3cc(F)c4nc(C5CCNC(C)C5)cn4c3)cc(C)c2n1 (stereo not drawn) [Compound 60, 6-(8-fluoro-2-(2-methylpiperidin-4-yl)imidazo[1,2-a]pyridin-6-yl)-2,8-dimethylimidazo[1,2-b]pyridazine]
- IC50: < 0.1 µM

Compound: Cc1cn2nc(-c3cc(F)c4nc(C5CCNC(C)C5)cn4c3)ccc2n1 (stereo not drawn) [Compound 61, 6-(8-fluoro-2-(2-methylpiperidin-4-yl)imidazo[1,2-a]pyridin-6-yl)-2-methylimidazo[1,2-b]pyridazine]
- IC50: < 0.1 µM

Compound: Cc1cn2nc(-c3cc(F)c4nc(C5CCNC(C)(C)C5)cn4c3)ccc2n1 (stereo not drawn) [Compound 62, 6-(2-(2,2-dimethylpiperidin-4-yl)-8-fluoroimidazo[1,2-a]pyridin-6-yl)-2-methylimidazo[1,2-b]pyridazine]
- IC50: < 0.1 µM

Compound: Cn1cc2cc(-c3cc(F)c4nc(C5CCNC(C)(C)C5)cn4c3)cc(F)c2n1 (stereo not drawn) [Compound 63, 5-(2-(2,2-dimethylpiperidin-4-yl)-8-fluoroimidazo[1,2-a]pyridin-6-yl)-7-fluoro-2-methyl-2H-indazole]
- IC50: 1 to 9 µM

Compound: Cc1cn2nc(-c3cc(F)c4nc(C5CNC5)cn4c3)cc(C)c2n1 [Compound 64]
- IC50: 1 to 9 µM

Compound: Cn1cc2cc(-c3cc(F)c4nc(C5CCNC5)cn4c3)ccc2n1 (stereo not drawn) [Compound 65, 5-(8-fluoro-2-(pyrrolidin-3-yl)imidazo[1,2-a]pyridin-6-yl)-2-methyl-2H-indazole]
- IC50: 1 to 9 µM

Compound: CN1CC2(c3cn4cc(-c5cc(F)c6nn(C)cc6c5)cc(F)c4n3)CC1C2 [Compound 66, 7-fluoro-5-[8-fluoro-2-(2-methyl-2-azabicyclo[2.1.1]hexan-4-yl)imidazo[1,2-a]pyridin-6-yl]-2-methyl-indazole]
- IC50: 1 to 9 µM

Compound: Cn1cc2cc(-c3cc(F)c4nc(C56CNC(C5)C6)cn4c3)cc(F)c2n1 [Compound 67]
- IC50: 1 to 9 µM

Compound: Cn1cc2cc(-c3cc(F)c4nc(C56CC(N)(CO5)C6)cn4c3)cc(F)c2n1 [Compound 68]
- IC50: 1 to 9 µM

Compound: Cc1cn2nc(-c3cc(F)c4nc(C5CCN(C6CCC6)CC5)cn4c3)cc(C)c2n1 [Compound 69, 6-[2-(1-cyclobutyl-4-piperidyl)-8-fluoro-imidazo[1,2-a]pyridin-6-yl]-2,8-dimethyl-imidazo[1,2-b]pyridazine]
- IC50: < 0.1 µM

Compound: Cn1cc2cc(-c3cc(F)c4nc(C56CCC(N)(C5)C6)cn4c3)cc(F)c2n1 [Compound 72, 4-(8-fluoro-6-(7-fluoro-2-methyl-2H-indazol-5-yl)imidazo[1,2-a]pyridin-2-yl)bicyclo[2.1.1]hexan-1-amine]
- IC50: 1 to 9 µM

Compound: CN1C(=O)COc2cc(-c3cc(F)c4nc(C5CCNCC5)cn4c3)cnc21 [Compound 73, 7-(8-fluoro-2-(piperidin-4-yl)imidazo[1,2-a]pyridin-6-yl)-4-methyl-2H-pyrido[3,2-b][1,4]oxazin-3(4H)-one]
- IC50: 1 to 9 µM

Compound: CC(=O)N1CCC(c2cn3cc(-c4cc(C)c5nc(C)cn5n4)cc(F)c3n2)CC1 [Compound 74, 1-[4-[6-(2,8-dimethylimidazo[1,2-b]pyridazin-6-yl)-8-fluoro-imidazo[1,2-a]pyridin-2-yl]-1-piperidyl]ethanone]
- IC50: 0.1 to 1 µM

Compound: Cn1cc2cc(-c3cc(F)c4nc(C56CCNC(C5)C6)cn4c3)cc(F)c2n1 [Compound 75]
- IC50: 1 to 9 µM

Compound: CN1CCC2(c3cn4cc(-c5cc(F)c6nn(C)cc6c5)cc(F)c4n3)CC1C2 [Compound 76, 5-(8-fluoro-6-(7-fluoro-2-methyl-2H-indazol-5-yl)imidazo[1,2-a]pyridin-2-yl)-2-methyl-2-azabicyclo[3.1.1]heptane]
- IC50: 1 to 9 µM

Compound: CNC12CCC(c3cn4cc(-c5cc(F)c6nn(C)cc6c5)cc(F)c4n3)(C1)C2 [Compound 77, 4-(8-fluoro-6-(7-fluoro-2-methyl-2H-indazol-5-yl)imidazo[1,2-a]pyridin-2-yl)-N-methylbicyclo[2.1.1] hexan-1-amine]
- IC50: 1 to 9 µM

Compound: Cc1cn2nc(-c3cc(F)c4nc(C5CC6(CCNCC6)C5)cn4c3)cc(C)c2n1 [Compound 78, 6-(8-fluoro-2-(7-azaspiro[3.5]nonan-2-yl)imidazo[1,2-a]pyridin-6-yl)-2,8-dimethylimidazo[1,2-b]pyridazine]
- IC50: < 0.1 µM

Compound: CNC12COC(c3cn4cc(-c5cc(F)c6nn(C)cc6c5)cc(F)c4n3)(C1)C2 [Compound 79, 1-[8-fluoro-6-(7-fluoro-2-methyl-indazol-5-yl)imidazo[1,2-a]pyridin-2-yl]-N-methyl-2-oxabicyclo[2.1.1]hexan-4-amine]
- IC50: 0.1 to 1 µM

Compound: Cc1cn2nc(-c3cc(F)c4nc(C56CC(C5)N(C)C6)cn4c3)cc(C)c2n1 [Compound 80]
- IC50: 0.1 to 1 µM

Compound: Cc1nc2c(F)cc(-c3cc(F)c4nc(C5CCNCC5)cn4c3)cc2o1 [Compound 82, 4-fluoro-6-(8-fluoro-2-(piperidin-4-yl)imidazo[1,2-a]pyridin-6-yl)-2-methylbenzo[d]oxazole]
- IC50: < 0.1 µM

Compound: COc1cc(-c2cc(F)c3nc(C4CCNCC4)cn3c2)cc2cn(C)nc12 [Compound 83, 5-(8-fluoro-2-(piperidin-4-yl)imidazo[1,2-a]pyridin-6-yl)-7-methoxy-2-methyl-2H-indazole]
- IC50: 0.1 to 1 µM

Compound: Cn1cc2cc(-c3cc(F)c4nc(C5CCNCC5)cn4c3)cc(C(F)F)c2n1 [Compound 84, 7-(difluoromethyl)-5-(8-fluoro-2-(piperidin-4-yl)imidazo[1,2-a]pyridin-6-yl)-2-methyl-2H-indazole]
- IC50: < 0.1 µM

Compound: Cn1cc2cc(-c3cc(F)c4nc(C5CCNCC5)cn4c3)cc(C#N)c2n1 [Compound 85, 5-(8-fluoro-2-(piperidin-4-yl)imidazo[1,2-a]pyridin-6-yl)-2-methyl-2H-indazole-7-carbonitrile]
- IC50: 0.1 to 1 µM

Compound: Cn1cc2c(F)cc(-c3cc(F)c4nc(C5CCNCC5)cn4c3)cc2n1 [Compound 86, 4-fluoro-6-(8-fluoro-2-(piperidin-4-yl)imidazo[1,2-a]pyridin-6-yl)-2-methyl-2H-indazole]
- IC50: 1 to 9 µM

Compound: Cn1nc2cc(-c3cc(F)c4nc(C5CCNCC5)cn4c3)cc(F)c2n1 [Compound 87, 4-fluoro-6-(8-fluoro-2-(piperidin-4-yl)imidazo[1,2-a]pyridin-6-yl)-2-methyl-2H-benzo[d][1,2,3]triazole]
- IC50: 0.1 to 1 µM

Compound: Cc1nc2c(F)cc(-c3cc(F)c4nc(C5CCNCC5)cn4c3)cn2n1 [Compound 88, 8-fluoro-6-(8-fluoro-2-(piperidin-4-yl)imidazo[1,2-a]pyridin-6-yl)-2-methyl-[1,2,4]triazolo[1,5-a]pyridine]
- IC50: 0.1 to 1 µM

Compound: COc1cc(-c2cc(F)c3nc(C4CCNCC4)cn3c2)cn2cc(C)nc12 [Compound 89, 8-fluoro-8′-methoxy-2′-methyl-2-(piperidin-4-yl)-6,6′-biimidazo[1,2-a]pyridine]
- IC50: 0.1 to 1 µM

Compound: Cc1nc2c(F)cc(-c3cc(F)c4nc(C5CCNCC5)cn4c3)cc2s1 [Compound 90, 4-fluoro-6-(8-fluoro-2-(piperidin-4-yl)imidazo[1,2-a]pyridin-6-yl)-2-methylbenzo[d]thiazole]
- IC50: 1 to 9 µM

Compound: Cc1cn2nc(-c3cc(F)c4nc(C56CC(N)(C5)C6)cn4c3)cc(C)c2n1 [Compound 91]
- IC50: < 0.1 µM

Compound: Cc1cc(-c2cc(F)c3nc(C4CCNCC4)cn3c2)nc2cn(C)nc12 [Compound 92, 5-(8-fluoro-2-(piperidin-4-yl)imidazo[1,2-a]pyridin-6-yl)-2,7-dimethyl-2H-pyrazolo[4,3-b]pyridine]
- IC50: < 0.1 µM

Compound: Cn1cc2cc(-c3cc(F)c4nc(C5CCNCC5)cn4c3)cc(F)c2n1 [Compound 93, 7-fluoro-5-(8-fluoro-2-(piperidin-4-yl)imidazo[1,2-a]pyridin-6-yl)-2-methyl-2H-indazole]
- IC50: 0.1 to 1 µM

Compound: Cc1cc(-c2cc(F)c3nc(C4CCNCC4)cn3c2)cc2cn(C)nc12 [Compound 94, 5-(8-fluoro-2-(piperidin-4-yl)imidazo[1,2-a]pyridin-6-yl)-2,7-dimethyl-2H-indazole]
- IC50: 0.1 to 1 µM

Compound: Cc1cn2cc(-c3cc(F)c4nc(C5CCNCC5)cn4c3)cc(C)c2n1 [Compound 95, 8-fluoro-2′,8′-dimethyl-2-(piperidin-4-yl)-6,6′-biimidazo[1,2-a]pyridine]
- IC50: 0.1 to 1 µM
